Data on 23 compounds can be found in US20230192705A1, “SHP2 INHIBITORS, COMPOSITIONS AND USES THEREOF” (Betta Pharmaceuticals Co., Ltd, priority 2020, published 2023).

The target in this test is T1, SHP2 (Homo sapiens, UniProt Q06124).
T1 sequence (Q06124 1-593): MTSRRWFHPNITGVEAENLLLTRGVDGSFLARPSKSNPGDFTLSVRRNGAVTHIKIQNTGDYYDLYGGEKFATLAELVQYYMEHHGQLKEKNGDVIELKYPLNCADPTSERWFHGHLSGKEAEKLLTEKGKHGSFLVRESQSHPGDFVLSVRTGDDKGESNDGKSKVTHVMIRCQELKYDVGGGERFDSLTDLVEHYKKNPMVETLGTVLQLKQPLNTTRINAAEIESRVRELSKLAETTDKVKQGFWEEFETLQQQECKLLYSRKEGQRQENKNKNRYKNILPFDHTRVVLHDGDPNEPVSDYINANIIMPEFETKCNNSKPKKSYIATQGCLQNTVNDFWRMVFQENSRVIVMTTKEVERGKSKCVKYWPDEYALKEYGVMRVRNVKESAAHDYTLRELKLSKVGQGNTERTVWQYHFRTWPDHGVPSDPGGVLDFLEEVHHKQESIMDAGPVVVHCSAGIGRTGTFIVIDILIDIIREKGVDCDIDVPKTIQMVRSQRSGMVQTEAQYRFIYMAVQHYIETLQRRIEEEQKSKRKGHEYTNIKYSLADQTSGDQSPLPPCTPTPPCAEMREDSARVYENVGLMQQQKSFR
In words: SHP2 allosteric inhibitor enzyme activity assay (DiFMUP fluorescence). Format: biochemical. To be noted: class symbols. The essentials: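 SHP2 activated by 0.5 μM IRS1_pY1172(dPEG8)pY1222 peptide, 0.2 ng enzyme per well, 1 h at room temperature with compound (1 μM top, 3-fold series), then DiFMUP substrate 1 h. Buffer: 60 mM HEPES, 75 mM NaCl, 75 mM KCl, 0.05% BRIJ-35, 1 mM EDTA, 5 mM DTT. Fluorescence ex 340/em 450 nm; IC50 by variable-slope fit.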

Molecules are shown by their SMILES.

As to `N[C@@H]1c2ccccc2CC12CCN(c1nc3[nH]nc(C4CCCCc5ccccc54)c3c(=O)[nH]1)CC2` (stereo partly drawn) [Example 110, 6-((S)-1-amino-1,3-dihydrospiro[indene-2,4′-piperidin]-1′-yl)-3-(6,7,8,9-tetrahydro-5H-benzo[7]annulen-5-yl)-1,5-dihydro-4H-pyrazolo[3,4-d]pyrimidin-4-one], the IC50 is at most 20 nM. The figure for `CN1c2ccccc2C(c2n[nH]c3nc(N4CCC5(CC4)Cc4ccccc4[C@H]5N)[nH]c(=O)c23)=CS1(=O)=O` [Example 184, (S)-6-(1-amino-1,3-dihydrospiro[indene-2,4′-piperidin]-1′-yl)-3-(1-methyl-2,2-dioxido-1H-benzo[c][1,2]thiazin-4-yl)-1,5-dihydro-4H-pyrazolo[3,4-d]pyrimidin-4-one] is at most 20 nM; for `COc1cccc(C2(c3n[nH]c4nc(N5CCC6(CC5)Cc5ccccc5[C@H]6N)[nH]c(=O)c34)CCC2)c1` [Example 95, (S)-6-(1-amino-1,3-dihydrospiro[indene-2,4′-piperidin]-1′-yl)-3-(1-(3-methoxyphenyl)cyclobutyl)-1,5-dihydro-4H-pyrazolo[3,4-d]pyrimidin-4-one] it is at most 20 nM; for `N[C@@H]1c2ccccc2CC12CCN(c1nc3[nH]nc(C4=CCOc5ncccc54)c3c(=O)[nH]1)CC2` [Example 116, (S)-6-(1-amino-1,3-dihydrospiro[indene-2,4′-piperidin]-1′-yl)-3-(2H-pyrano[2,3-b]pyridin-4-yl)-1,5-dihydro-4H-pyrazolo[3,4-d]pyrimidin-4-one] it is at most 20 nM. As for `CSc1ccc2c(c1)[C@@H](N)C1(CCN(c3nc4[nH]nc(C5(c6ccccc6)CC5)c4c(=O)[nH]3)CC1)C2` [Example 196, (S)-6-(1-amino-6-(methylthio)-1,3-dihydrospiro[indene-2,4′-piperidin]-1′-yl)-3-(1-phenylcyclopropyl)-1,5-dihydro-4H-pyrazolo[3,4-d]pyrimidin-4-one], the half-inhibitory concentration (IC50) was at most 20 nM. Turning to `CC1(C)C=C(c2n[nH]c3nc(N4CCC5(CC4)Cc4ccccc4[C@H]5N)[nH]c(=O)c23)c2cc(C#N)cnc2C1` [Example 163, (S)-5-(6-(1-amino-1,3-dihydrospiro[indene-2,4′-piperidin]-1′-yl)-4-oxo-4,5-dihydro-1H-pyrazolo[3,4-d]pyrimidin-3-yl)-7,7-dimethyl-7,8-dihydroquinoline-3-carbonitrile], the half-maximal inhibitory concentration (IC50) was at most 20 nM.

For `N[C@@H]1COCC12CCN(c1nc3[nH]nc(C4(c5nc6ccccc6[nH]5)CC4)c3c(=O)[nH]1)CC2` [Example 283, (S)-3-(1-(1H-benzo[d]imidazol-2-yl)cyclopropyl)-6-(4-amino-2-oxa-8-azaspiro[4.5]decan-8-yl)-1,5-dihydro-4H-pyrazolo[3,4-d]pyrimidin-4-one], the IC50 is above 60 nM. The figure for `C[C@@H]1OCC2(CCN(c3cnc4c(C5(c6ccccc6)CC5)c[nH]c4n3)CC2)[C@@H]1N` [Example 269, (3S,4S)-3-methyl-8-(7-(1-phenylcyclopropyl)-5H-pyrrolo[2,3-b]pyrazin-3-yl)-2-oxa-8-azaspiro[4.5]decan-4-amine] is above 60 nM; for `N[C@@H]1c2nc(Cl)sc2CC12CCN(c1nc3[nH]nc(C4(c5ccccc5)CC4)c3c(=O)[nH]1)CC2` [Example 193, (S)-6-(4-amino-2-chloro-4,6-dihydrospiro[cyclopenta[d]thiazole-5,4′-piperidin]-1′-yl)-3-(1-phenylcyclopropyl)-1,5-dihydro-4H-pyrazolo[3,4-d]pyrimidin-4-one] it is at most 20 nM; for `C[C@@H]1OCC2(CCN(c3nc4[nH]nc(C5(c6ccc(Cl)cc6Cl)CC5)c4c(=O)[nH]3)CC2)[C@@H]1N` [Example 313, 6-((3S,4S)-4-amino-3-methyl-2-oxa-8-azaspiro[4.5]decan-8-yl)-3-(1-(2,4-dichlorophenyl)cyclopropyl)-1,5-dihydro-4H-pyrazolo[3,4-d]pyrimidin-4-one] it is above 60 nM.

`N[C@@H]1CCCC12CCN(c1nc3[nH]nc(C4(c5ccccc5)CC4)c3c(=O)[nH]1)CC2` [Example 321, (R)-6-(1-amino-8-azaspiro[4.5]decan-8-yl)-3-(1-phenylcyclopropyl)-1,5-dihydro-4H-pyrazolo[3,4-d]pyrimidin-4-one]: the IC50 lay in the range of 20 to 60 nM. The figure for `Nc1ccccc1C1(c2n[nH]c3nc(N4CCC5(CC4)Cc4ccccc4[C@H]5N)[nH]c(=O)c23)CC1` [Example 22, (S)-6-(1-amino-1,3-dihydrospiro[indene-2,4′-piperidin]-1′-yl)-3-(1-(2-aminophenyl)cyclopropyl)-1,5-dihydro-4H-pyrazolo[3,4-d]pyrimidin-4-one] is at most 20 nM; for `N[C@@H]1c2ccccc2CC12CCN(c1nc3[nH]nc(C4(c5ccccc5OC(F)(F)F)CC4)c3c(=O)[nH]1)CC2` [Example 16, (S)-6-(1-amino-1,3-dihydrospiro[indene-2,4′-piperidin]-1′-yl)-3-(1-(2-(trifluoromethoxy)phenyl)cyclo-propyl)-1,5-dihydro-4H-pyrazolo[3,4-d]pyrimidin-4-one] it is at most 20 nM; for `N[C@@H]1c2cc(Cl)ccc2CC12CCN(c1nc3[nH]nc(C4(c5ccccc5)CC4)c3c(=O)[nH]1)CC2` [Example 194, (S)-6-(1-amino-6-chloro-1,3-dihydrospiro[indene-2,4′-piperidin]-1′-yl)-3-(1-phenylcyclopropyl)-1,5-dihydro-4H-pyrazolo[3,4-d]pyrimidin-4-one] it is at most 20 nM. Consider `N[C@@H]1c2ccccc2CC12CCN(c1nc3[nH]nc(C4(c5ccccn5)CC4)c3c(=O)[nH]1)CC2` [Example 23, (S)-6-(1-amino-1,3-dihydrospiro[indene-2,4′-piperidin]-1′-yl)-3-(1-(pyridin-2-yl)cyclopropyl)-1,5-dihydro-4H-pyrazolo[3,4-d]pyrimidin-4-one], for which the IC50 is at most 20 nM. The figure for `N[C@@H]1c2ccccc2CC12CCN(c1nc3[nH]nc([C@H]4C[C@H]4c4ccccc4)c3c(=O)[nH]1)CC2` [Example 105, 6-((S)-1-amino-1,3-dihydrospiro[indene-2,4′-piperidin]-1′-yl)-3-((1S,2R)-2-phenylcyclopropyl)-1,5-dihydro-4H-pyrazolo[3,4-d]pyrimidin-4-one] is at most 20 nM; for `C[C@@H]1OCC2(CCN(c3cnc(C4(c5ccccc5)CC4)cn3)CC2)[C@@H]1N` [Example 258, (3S,4S)-3-methyl-8-(5-(1-phenylcyclopropyl)pyrazin-2-yl)-2-oxa-8-azaspiro[4.5]decan-4-amine] it is above 60 nM. Take `Nc1cccc(C2(c3n[nH]c4nc(N5CCC6(CC5)Cc5ccccc5[C@H]6N)[nH]c(=O)c34)CC2)c1` [Example 43, (S)-6-(1-amino-1,3-dihydrospiro[indene-2,4′-piperidin]-1′-yl)-3-(1-(3-aminophenyl)cyclopropyl)-1,5-dihydro-4H-pyrazolo[3,4-d]pyrimidin-4-one]: the IC50 is at most 20 nM.

`COc1ccccc1C1(c2n[nH]c3nc(N4CCC5(CC4)Cc4ccccc4[C@H]5N)[nH]c(=O)c23)CC12CCCC2` (stereo partly drawn) [Example 101, 6-((S)-1-amino-1,3-dihydrospiro[indene-2,4′-piperidin]-1′-yl)-3-(1-(2-methoxyphenyl)spiro[2.4]heptan-1-yl)-1,5-dihydro-4H-pyrazolo[3,4-d]pyrimidin-4-one]: the IC50 fell in the range of 20 to 60 nM. The figure for `COc1cc(F)cc(C2(c3n[nH]c4nc(N5CCC6(CC5)CO[C@@H](C)[C@H]6N)[nH]c(=O)c34)CC2)c1` [Example 288, 6-((3S,4S)-4-amino-3-methyl-2-oxa-8-azaspiro[4.5]decan-8-yl)-3-(1-(3-fluoro-5-methoxyphenyl)cyclopropyl)-1,5-dihydro-4H-pyrazolo[3,4-d]pyrimidin-4-one] is above 60 nM; for `CC1(C)CC(c2n[nH]c3nc(N4CCC5(CC4)Cc4ccccc4[C@H]5N)[nH]c(=O)c23)c2cccc(F)c21` (stereo partly drawn) [Example 109, 6-((S)-1-amino-1,3-dihydrospiro[indene-2,4′-piperidin]-1′-yl)-3-(4-fluoro-3,3-dimethyl-2,3-dihydro-1H-inden-1-yl)-1,5-dihydro-4H-pyrazolo[3,4-d]pyrimidin-4-one] it is at most 20 nM; for `N[C@@H]1c2ccccc2CC12CCN(c1nc3[nH]nc(C4(c5cnnc(Cl)c5)CC4)c3c(=O)[nH]1)CC2` [Example 70, (S)-6-(1-amino-1,3-dihydrospiro[indene-2,4′-piperidin]-1′-yl)-3-(1-(6-chloropyridazin-4-yl)cyclopropyl)-1,5-dihydro-4H-pyrazolo[3,4-d]pyrimidin-4-one] it is at most 20 nM. For `C[C@@H]1OCC2(CCN(c3nc4[nH]nc(C5(c6ncco6)CC5)c4c(=O)[nH]3)CC2)[C@@H]1N` [Example 279, 6-((3S,4S)-4-amino-3-methyl-2-oxa-8-azaspiro[4.5]decan-8-yl)-3-(1-(oxazol-2-yl)cyclopropyl)-1,5-dihydro-4H-pyrazolo[3,4-d]pyrimidin-4-one], the half-maximal inhibitory concentration (IC50) was 20 to 60 nM.
